This note sets out measurements from publication PMC9719519, “Non-classical ferroptosis inhibition by a small molecule targeting PHB2” (Nature Communications, 2022).

Common to all, as to assay: biochemical
What all share (design): Eurofins recombinant human kinase profiling, remaining kinase activity as % of control, 10 uM ATP
Holding throughout (details): ATP 10 uM; read-out: %Ctrl@10 μM

Assay [1] has as its target FGFR1(V561M)(h) (Homo sapiens, UniProt P11362, V561M). The procedure, abridged:
(§1)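 Activity measured in a commercial panel of 401 recombinant human protein kinases run as a kinase profiling service.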

Assay [2] addresses T1, PDHK2(h) (Homo sapiens, UniProt Q15119).
T1 construct: gene PDK2
The procedure, abridged:
as §1

For assay [3], the target named is T2, PKCδ(h) (Homo sapiens, UniProt Q05655).
T2 construct: gene PRKCD
The procedure, abridged: as §1

Assay [4] has as its target T3, Aurora-A(h) (Homo sapiens, UniProt O14965).
T3 construct: gene AURKA
The procedure, abridged: as §1

Assay [5] deals with TTBK1(h) (Homo sapiens, UniProt Q5TCY1). The procedure, abridged: as §1
Sequence of TTBK1(h) (Q5TCY1 whole entry): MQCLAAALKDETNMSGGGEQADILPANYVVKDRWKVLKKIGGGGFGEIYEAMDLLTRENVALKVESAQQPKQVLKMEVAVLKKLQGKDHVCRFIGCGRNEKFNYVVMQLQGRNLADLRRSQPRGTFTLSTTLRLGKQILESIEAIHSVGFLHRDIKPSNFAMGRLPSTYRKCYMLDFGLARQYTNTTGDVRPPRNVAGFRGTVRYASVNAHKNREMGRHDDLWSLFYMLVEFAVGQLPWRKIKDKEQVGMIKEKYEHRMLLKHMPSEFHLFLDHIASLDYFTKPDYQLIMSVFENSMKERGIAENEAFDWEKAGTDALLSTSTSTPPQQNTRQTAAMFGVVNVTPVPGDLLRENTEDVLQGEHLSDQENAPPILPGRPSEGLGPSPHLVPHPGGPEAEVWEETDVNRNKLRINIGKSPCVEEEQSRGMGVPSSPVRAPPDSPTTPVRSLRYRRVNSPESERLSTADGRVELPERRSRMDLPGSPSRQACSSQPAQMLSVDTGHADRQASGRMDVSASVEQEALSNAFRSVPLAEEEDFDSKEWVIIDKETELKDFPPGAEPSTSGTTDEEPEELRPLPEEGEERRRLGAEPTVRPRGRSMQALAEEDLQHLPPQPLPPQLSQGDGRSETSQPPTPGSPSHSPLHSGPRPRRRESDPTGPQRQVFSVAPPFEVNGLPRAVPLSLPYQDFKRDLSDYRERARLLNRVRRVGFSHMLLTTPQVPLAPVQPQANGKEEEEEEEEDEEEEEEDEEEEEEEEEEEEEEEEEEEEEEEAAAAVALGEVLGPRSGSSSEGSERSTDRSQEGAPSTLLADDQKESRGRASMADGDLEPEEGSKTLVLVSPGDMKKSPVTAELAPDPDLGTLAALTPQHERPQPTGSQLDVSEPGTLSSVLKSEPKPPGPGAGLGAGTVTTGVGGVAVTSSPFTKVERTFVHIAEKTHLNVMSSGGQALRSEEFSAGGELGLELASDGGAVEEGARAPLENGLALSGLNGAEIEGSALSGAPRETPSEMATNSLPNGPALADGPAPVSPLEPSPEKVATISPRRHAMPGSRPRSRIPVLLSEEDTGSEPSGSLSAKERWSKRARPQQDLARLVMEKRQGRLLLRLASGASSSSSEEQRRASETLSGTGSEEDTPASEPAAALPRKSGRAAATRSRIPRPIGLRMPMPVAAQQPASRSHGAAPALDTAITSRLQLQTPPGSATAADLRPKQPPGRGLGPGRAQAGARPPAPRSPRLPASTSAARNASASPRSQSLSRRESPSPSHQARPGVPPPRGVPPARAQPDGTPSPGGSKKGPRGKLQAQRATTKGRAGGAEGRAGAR
The target of assay [6] is T4, SIK(h) (Homo sapiens, UniProt P57059).
T4 construct: gene SIK1
The procedure, abridged: as §1

Assay [7] concerns the target PrKX(h) (Homo sapiens, UniProt P51817). The procedure, abridged: as §1
Assay [8] addresses T5, cSRC(h) (Homo sapiens, UniProt P12931).
T5 construct: gene SRC
The procedure, abridged: as §1

The target of assay [9] is T6, FAK(h) (Homo sapiens, UniProt Q05397).
T6 construct: gene PTK2
The procedure, abridged:
as §1

Assay [10] deals with T7, Abl (M351T)(h) (Homo sapiens, UniProt P00519, M351T).
T7 construct: gene ABL1
The procedure, abridged: as §1

The target of assay [11] is T8, MLCK(h) (Homo sapiens, UniProt Q15746).
T8 construct: gene MYLK
The procedure, abridged: as §1

The target of assay [12] is Fes(h) (Homo sapiens, UniProt P07332). The procedure, abridged: as §1
The target in assay [13] is HIPK1(h) (Homo sapiens, UniProt Q86Z02). The procedure, abridged:
as §1

Assay [14] has as its target T9, DNA-PK(h) (Homo sapiens, UniProt P78527).
T9 construct: gene PRKDC
The procedure, abridged:
as §1

Assay [15] concerns the target T10, ChaK1(h) (Homo sapiens, UniProt Q96QT4).
T10 construct: gene TRPM7
The procedure, abridged:
as §1

In assay [16] the target is T11, Tie2 (h) (Homo sapiens, UniProt Q02763).
T11 construct: gene TEK
T11 sequence (Q02763 whole entry): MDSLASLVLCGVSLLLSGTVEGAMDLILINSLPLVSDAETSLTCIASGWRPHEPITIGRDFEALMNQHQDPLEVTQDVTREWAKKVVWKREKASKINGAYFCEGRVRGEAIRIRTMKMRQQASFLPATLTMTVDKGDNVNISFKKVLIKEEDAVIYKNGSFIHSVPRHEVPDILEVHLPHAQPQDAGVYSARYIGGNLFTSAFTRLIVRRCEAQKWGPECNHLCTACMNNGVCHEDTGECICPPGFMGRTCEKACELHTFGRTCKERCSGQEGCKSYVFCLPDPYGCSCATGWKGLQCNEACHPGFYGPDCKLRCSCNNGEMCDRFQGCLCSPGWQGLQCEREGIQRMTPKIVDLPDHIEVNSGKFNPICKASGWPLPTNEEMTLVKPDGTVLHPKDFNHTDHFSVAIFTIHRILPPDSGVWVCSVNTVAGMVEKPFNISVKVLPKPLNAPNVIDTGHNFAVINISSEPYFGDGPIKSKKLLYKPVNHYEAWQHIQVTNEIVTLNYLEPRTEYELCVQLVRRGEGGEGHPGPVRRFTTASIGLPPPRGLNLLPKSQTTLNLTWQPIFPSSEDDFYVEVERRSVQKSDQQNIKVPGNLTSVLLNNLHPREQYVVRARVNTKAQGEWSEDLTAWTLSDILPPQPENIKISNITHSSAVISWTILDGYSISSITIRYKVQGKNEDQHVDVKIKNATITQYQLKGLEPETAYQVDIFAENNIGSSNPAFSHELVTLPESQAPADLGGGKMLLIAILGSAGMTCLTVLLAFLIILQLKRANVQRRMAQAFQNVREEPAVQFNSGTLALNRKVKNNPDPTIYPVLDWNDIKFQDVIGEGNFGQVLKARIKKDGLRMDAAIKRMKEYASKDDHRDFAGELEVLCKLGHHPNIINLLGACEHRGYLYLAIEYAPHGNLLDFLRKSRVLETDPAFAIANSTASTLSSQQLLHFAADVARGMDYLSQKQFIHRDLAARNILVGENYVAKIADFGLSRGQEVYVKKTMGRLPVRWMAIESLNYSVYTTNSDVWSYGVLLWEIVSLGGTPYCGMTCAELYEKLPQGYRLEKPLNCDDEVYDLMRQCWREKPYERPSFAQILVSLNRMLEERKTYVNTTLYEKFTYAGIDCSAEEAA
The procedure, abridged: as §1

Assay [17] deals with T12, cKit(D816V)(h) (Homo sapiens, UniProt P10721, D816V).
T12 construct: gene KIT
The procedure, abridged:
as §1

Assay [18] addresses TGFBR2(h) (Homo sapiens, UniProt P37173). The procedure, abridged:
as §1

The target of assay [19] is T13, DCAMKL3(h) (Homo sapiens, UniProt Q9C098).
T13 construct: gene DCLK3
The procedure, abridged: as §1

Assay [20] concerns the target T14, DCAMKL2(h) (Homo sapiens, UniProt Q8N568).
T14 construct: gene DCLK2
The procedure, abridged:
as §1

Assay [21] has as its target EphB1(h) (Homo sapiens, UniProt P54762). The procedure, abridged:
as §1

Assay [22] has as its target T15, MRCKβ(h) (Homo sapiens, UniProt Q9Y5S2).
T15 construct: gene CDC42BPB
The procedure, abridged:
as §1

T15 sequence (Q9Y5S2 whole entry): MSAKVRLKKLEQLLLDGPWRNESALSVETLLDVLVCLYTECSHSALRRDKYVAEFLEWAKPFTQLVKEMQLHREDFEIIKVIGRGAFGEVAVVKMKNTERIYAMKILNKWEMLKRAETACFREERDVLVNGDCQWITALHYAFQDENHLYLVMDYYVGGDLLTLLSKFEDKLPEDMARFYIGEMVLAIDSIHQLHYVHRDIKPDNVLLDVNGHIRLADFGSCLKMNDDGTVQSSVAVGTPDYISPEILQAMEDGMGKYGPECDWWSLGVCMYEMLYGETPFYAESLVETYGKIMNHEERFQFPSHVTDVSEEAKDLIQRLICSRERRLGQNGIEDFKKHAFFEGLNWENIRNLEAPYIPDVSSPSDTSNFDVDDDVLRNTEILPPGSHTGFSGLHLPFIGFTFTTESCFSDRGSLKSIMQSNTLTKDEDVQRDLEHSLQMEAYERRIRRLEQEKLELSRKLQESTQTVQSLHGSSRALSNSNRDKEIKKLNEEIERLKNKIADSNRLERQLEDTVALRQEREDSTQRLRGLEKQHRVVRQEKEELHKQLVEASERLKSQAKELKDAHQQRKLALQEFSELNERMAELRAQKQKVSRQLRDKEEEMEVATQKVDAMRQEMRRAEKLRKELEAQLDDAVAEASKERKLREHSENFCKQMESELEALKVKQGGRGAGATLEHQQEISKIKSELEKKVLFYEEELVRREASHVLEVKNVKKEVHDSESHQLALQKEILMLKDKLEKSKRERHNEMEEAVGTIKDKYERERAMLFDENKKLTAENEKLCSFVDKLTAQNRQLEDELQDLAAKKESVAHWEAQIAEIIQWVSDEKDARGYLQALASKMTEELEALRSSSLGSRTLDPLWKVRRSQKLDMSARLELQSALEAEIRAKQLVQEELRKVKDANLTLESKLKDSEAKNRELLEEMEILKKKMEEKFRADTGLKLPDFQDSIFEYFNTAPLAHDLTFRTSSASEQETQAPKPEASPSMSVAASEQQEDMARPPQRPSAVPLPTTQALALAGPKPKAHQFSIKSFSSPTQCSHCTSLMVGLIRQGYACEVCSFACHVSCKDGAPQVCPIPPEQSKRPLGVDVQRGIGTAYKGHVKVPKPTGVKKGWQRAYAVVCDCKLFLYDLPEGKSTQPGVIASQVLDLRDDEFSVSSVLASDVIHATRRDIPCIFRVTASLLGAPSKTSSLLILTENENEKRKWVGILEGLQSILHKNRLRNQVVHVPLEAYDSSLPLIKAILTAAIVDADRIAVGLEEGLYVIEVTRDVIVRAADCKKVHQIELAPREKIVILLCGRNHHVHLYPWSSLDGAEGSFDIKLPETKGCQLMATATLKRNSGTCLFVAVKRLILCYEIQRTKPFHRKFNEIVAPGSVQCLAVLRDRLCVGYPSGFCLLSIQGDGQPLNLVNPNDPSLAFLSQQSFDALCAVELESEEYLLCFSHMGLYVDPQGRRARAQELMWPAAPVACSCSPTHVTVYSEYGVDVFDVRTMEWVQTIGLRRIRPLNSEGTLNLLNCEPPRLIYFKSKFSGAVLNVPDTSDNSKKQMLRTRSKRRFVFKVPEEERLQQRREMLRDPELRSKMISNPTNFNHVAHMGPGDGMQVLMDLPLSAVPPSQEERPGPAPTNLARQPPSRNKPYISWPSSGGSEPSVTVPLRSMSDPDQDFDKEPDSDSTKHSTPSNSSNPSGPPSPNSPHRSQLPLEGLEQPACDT
Sequence of FGFR1(V561M)(h) (P11362 whole entry V561M): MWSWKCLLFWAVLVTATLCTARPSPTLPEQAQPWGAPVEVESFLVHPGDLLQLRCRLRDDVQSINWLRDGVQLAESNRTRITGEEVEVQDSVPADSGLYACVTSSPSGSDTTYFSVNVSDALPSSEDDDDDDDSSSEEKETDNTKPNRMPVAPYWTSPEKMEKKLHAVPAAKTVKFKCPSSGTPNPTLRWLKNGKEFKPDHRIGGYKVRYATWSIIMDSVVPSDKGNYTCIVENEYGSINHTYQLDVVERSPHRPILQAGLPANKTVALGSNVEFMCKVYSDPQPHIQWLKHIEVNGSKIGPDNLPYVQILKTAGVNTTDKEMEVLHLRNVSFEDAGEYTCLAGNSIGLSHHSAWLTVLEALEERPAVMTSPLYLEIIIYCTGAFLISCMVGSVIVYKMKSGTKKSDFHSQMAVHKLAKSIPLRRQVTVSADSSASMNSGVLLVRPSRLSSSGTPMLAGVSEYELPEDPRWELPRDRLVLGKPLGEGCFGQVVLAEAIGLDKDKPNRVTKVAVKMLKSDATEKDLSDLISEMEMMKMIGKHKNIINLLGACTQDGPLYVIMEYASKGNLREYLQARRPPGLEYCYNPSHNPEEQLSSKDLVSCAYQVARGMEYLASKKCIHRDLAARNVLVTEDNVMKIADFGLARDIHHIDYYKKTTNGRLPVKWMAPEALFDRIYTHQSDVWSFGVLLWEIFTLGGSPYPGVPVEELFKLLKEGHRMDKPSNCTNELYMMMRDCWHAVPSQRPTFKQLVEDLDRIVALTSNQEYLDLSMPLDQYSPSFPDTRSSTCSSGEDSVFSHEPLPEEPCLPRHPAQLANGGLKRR

With `C1=C(c2nc(-c3cnn(C4CCNCC4)c3)cn3cc(-c4ccccc4)nc23)CCOC1` [YL-939], the remaining activity at 10 µM amounted to 65% in assay [1]; 87% in assay [2]; 81% in assay [3]; 111% in [4]; 103% in assay [5]; 100% in assay [6]. Moreover, the remaining activity at 10 µM in assay [7] was determined as 80%; in assay [8], 78%; in assay [9] it was 112%; in assay [10] it was 108%; in [11], 60%; in assay [12], 86%. The remaining activity at 10 µM in assay [13] was determined as 97%; in assay [14], 94%; in [15], 92%; in assay [16] it was 81%; in assay [17] it was 108%; in assay [18], 97%. The remaining activity at 10 µM in assay [19] amounted to 66%; in assay [20], 79%; in assay [21], 99%; in assay [22] it was 84%.
